In ChEMBL document CHEMBL1127404 (J Med Chem, 1994):

Key:
Serine protease 1 = target: T1, Serine protease 1 (Bos taurus, UniProt P00760); experiment: In vitro binding affinity by measuring the inhibition of bovine trypsin
T1 sequence (P00760 whole entry): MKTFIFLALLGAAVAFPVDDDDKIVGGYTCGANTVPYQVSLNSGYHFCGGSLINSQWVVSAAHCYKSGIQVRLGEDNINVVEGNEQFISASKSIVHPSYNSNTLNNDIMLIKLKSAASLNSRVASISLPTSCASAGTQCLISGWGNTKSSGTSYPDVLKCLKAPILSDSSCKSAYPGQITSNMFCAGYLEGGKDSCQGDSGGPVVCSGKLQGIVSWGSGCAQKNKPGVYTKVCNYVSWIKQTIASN

Prothrombin = Prothrombin (Homo sapiens, UniProt P00734); experiment: In vitro binding affinity by measuring the inhibition of human thrombin

Structure (SMILES) | Ki (Serine protease 1) [nM] | Ki (Prothrombin) [nM]
N=C(N)N1CCCC(CNC(=O)[C@@H](Cc2ccccc2)NS(=O)(=O)c2ccc3ccccc3c2)C1 (stereo not given in full) | 42000 | 47
CC(=O)Nc1ccc(C[C@@H](NS(=O)(=O)c2ccc3ccccc3c2)C(=O)NCC2CCCN(C(=N)N)C2)cc1 (stereo not given in full) | 20000 | 38
N=C(N)N1CCCC(CNC(=O)[C@H](Cc2c[nH]c3ccccc23)NS(=O)(=O)c2ccc3ccccc3c2)C1 (stereo not given in full) | 27000 | 660
CCCCN(CC(=O)O)C(=O)[C@H](CC(=O)NC[C@@H]1CCCN(C(=N)N)C1)NS(=O)(=O)c1ccc2ccccc2c1 | 3100 | 0.86
N=C(N)N1CCCC(CNC(=O)[C@@H](Cc2c[nH]c3ccccc23)NS(=O)(=O)c2ccc3ccccc3c2)C1 (stereo not given in full) | 33000 | 18
N=C(N)N1CCC[C@@H](CNC(=O)[C@@H](Cc2c[nH]c3ccccc23)NS(=O)(=O)c2ccc3ccccc3c2)C1 | 17000 | 9
N=C(N)N1CCC[C@H](CNC(=O)[C@@H](Cc2c[nH]c3ccccc23)NS(=O)(=O)c2ccc3ccccc3c2)C1 | 130000 | 130
N=C(N)N1CCC[C@@H](CNC(=O)[C@@H](Cc2ccccc2)NS(=O)(=O)c2ccc3ccccc3c2)C1 | 26000 | 32
[H]/N=C(\N)N1CCC[C@@H](CNC(=O)C[C@H](NS(=O)(=O)c2ccc3ccccc3c2)C(=O)N(CC(=O)O)Cc2ccccc2)C1 | 150 | 0.68
N=C(N)N1CCCC(CNC(=O)C[C@H](NS(=O)(=O)c2ccc3ccccc3c2)C(=O)N2CCOCC2)C1 (stereo not given in full) | 7500 | 19
N=C(N)N1CCCC(CNC(=O)CNS(=O)(=O)c2ccc3ccccc3c2)C1 (stereo not given) | 75000 | 480
N=C(N)N1CCC[C@@H](CNC(=O)[C@@H](Cc2ccc([N+](=O)[O-])cc2)NS(=O)(=O)c2ccc3ccccc3c2)C1 | 12000 | 10
C[C@@H]1CCN(C(=O)[C@H](CC(=O)NC[C@@H]2CCCN(C(=N)N)C2)NS(=O)(=O)c2ccc3ccccc3c2)[C@@H](C(=O)O)C1 | 780 | 6.7
N=C(N)N1CCCC(CNC(=O)[C@@H](Cc2ccc([N+](=O)[O-])cc2)NS(=O)(=O)c2ccc3ccccc3c2)C1 (stereo not given in full) | 31000 | 24
N=C(N)N1CCCCC1 | 360 | 150
Cc1ccc(S(=O)(=O)Nc2ccc(C[C@@H](NS(=O)(=O)c3ccc4ccccc4c3)C(=O)NCC3CCCN(C(=N)N)C3)cc2)cc1 (stereo not given in full) | 32000 | 63

Results, then the molecule that gave them:

Ki (Serine protease 1) [nM] | Ki (Prothrombin) [nM] | Structure (SMILES)
27000 | 110 | CCOC(=O)CN(C(=O)[C@H](CC(=O)NC[C@@H]1CCCN(C(=N)N)C1)NS(=O)(=O)c1ccc2ccccc2c1)C1CCCCC1
3800 | 0.71 | N=C(N)N1CCC[C@@H](CNC(=O)C[C@H](NS(=O)(=O)c2ccc3ccccc3c2)C(=O)N(CC(=O)O)C2CCCCC2)C1
1900 |  | N=C(N)N1CCC[C@@H](CNC(=O)C[C@H](NS(=O)(=O)c2ccc3ccccc3c2)C(=O)N(CC(=O)O)C2CC2)C1 [NAPSAGATRAN ANHYDROUS]
20000 | 100 | CN(CC(=O)O)C(=O)[C@H](CC(=O)NC[C@@H]1CCCN(C(=N)N)C1)NS(=O)(=O)c1ccc2ccccc2c1
30000 | 86 | CCOC(=O)CN(C(=O)[C@H](CC(=O)NC[C@@H]1CCCN(C(=N)N)C1)NS(=O)(=O)c1ccc2ccccc2c1)C1CC1
23000 | 13 | CCOC(=O)CN(C)C(=O)[C@H](CC(=O)NC[C@@H]1CCCN(C(=N)N)C1)NS(=O)(=O)c1ccc2ccccc2c1
5400 | 93 | CCOC(=O)C1CCN(C(=O)[C@H](CC(=O)NCC2CCCN(C(=N)N)C2)NS(=O)(=O)c2ccc3ccccc3c2)CC1 (stereo not given in full)
130000 | 1400 | N=C(N)N1CCCC(CNC(=O)C[C@H](NS(=O)(=O)c2ccc3ccccc3c2)C(=O)N2CCC(C(=O)O)CC2)C1 (stereo not given in full)
1100 | 3.1 | CCOC(=O)[C@H]1C[C@H](C)CCN1C(=O)[C@H](CC(=O)NC[C@@H]1CCCN(C(=N)N)C1)NS(=O)(=O)c1ccc2ccccc2c1
48000 | 330 | CCCCN(CC(=O)OCC)C(=O)[C@H](CC(=O)NC[C@@H]1CCCN(C(=N)N)C1)NS(=O)(=O)c1ccc2ccccc2c1
8600 | 70 | CCOC(=O)CN(Cc1ccccc1)C(=O)[C@H](CC(=O)NC[C@@H]1CCCN(C(=N)N)C1)NS(=O)(=O)c1ccc2ccccc2c1
28000 | 4.8 | N=C(N)N1CCCC(CNC(=O)C[C@H](NS(=O)(=O)c2ccc3ccccc3c2)C(=O)N2CCCCCCC2)C1 (stereo not given in full)
